Measurements from US8202866B2, “Ortho-aminoanilides for the treatment of cancer” (Hoffmann-La Roche Inc., priority 2008, dated 2012).

How the values were obtained:
[1] = test system: SMMC-7721 liver cancer cells; assay: Antiproliferative activity, in vitro growth inhibition assay (MTS/WST), SMMC-7721; type: cell-based; details: Homo sapiens, 72 hours; for IC90: concentration required for 90% growth inhibition, read-out: GI90 (micromolar) SMMC-7721; for GI50: read-out: GI50 (micromolar) SMMC-7721
Description: The novel compounds of the present invention were tested for their ability to inhibit growth of various cancer cell lines using in vitro growth inhibition assays described below.
Cells were seeded in 96-well culture plates (200 microliters/well at different seeding concentrations depending on cell type) and incubated overnight at 37 degrees Celsius in 5% CO2. After adding compound dilutions to the cells (DMSO concentration kept below 0.5%), the cells were incubated at 37 degrees Celsius in 5% CO2 for 72 hours. The effects on proliferation were determined by addition of MTS reagent (Promega) according to the manufacturer's instruction, followed by incubation for 2 hours at 37 degrees Celsius in 5% CO2, and finally recording the absorbance at 490 nm using an ELISA plate reader.
Similar to MTS assay except that the developer is the CCK-8 reagent (Dojindo) and the plate reader is set to 450 nm absorbance.
GI50 and GI90 values against SMMC-7721 liver cancer cells for specific representative compounds can be found in Table 7.

[2] = test system: p21 promoter-luciferase construct in HeLa cells; assay: p21 reporter gene induction assay, HeLa cells transfected with p21 promoter-luciferase construct; type: cell-based; details: compound at 3 micromolar; 15 hours incubation; relative to SNDX-275 (=100%)
Description: The novel compounds of the present invention were tested for their ability to induce p21 gene expression using a reporter gene assay involving HeLa cells transfected with a p21 promoter-luciferase construct. The p21 promoter contained the Sp1/Sp3 binding site for HDAC but not the upstream p53 binding site. Briefly, the day before transfection, HeLa cells were seeded at 11,000 cells/well in a 96-well culture plate and incubated at 37 degrees Celsius in 5% CO2 overnight. For transfection, the medium was removed and replaced with 100 microliters/well transfection media previously prepared as follows: 5 microliters serum-free DMEM, 0.15 microliters Fugene 6 reagent, 40 ng p21-luc, 10 ng GFP were mixed gently and incubated at room temperature for 30 minutes; then 98 microliters DMEM (with 10% FBS, 1% penicillin and streptomycin) was added to the DNA:Fugene 6 reagent complex and mixed gently. After incubating the cells for 24 hours at 37 degrees Celsius in 5% CO2, fresh media and test compounds were added to the wells and the cells further incubated for 15 hours at 37 degrees Celsius in 5% CO2. Cells were lysed by adding 80 microliters/well of a cell culture lysis reagent (Promega). 50 microliters of each lysate was taken for GFP detection using an excitation wavelength of 486 nm and detection at 527 nm. 100 microliters Luciferase assay reagent (Promega) was then added to every 20 microliters cell lysate for luminometer detection. […] Induction activity for specific representative compounds can be found in Table 7.

`Nc1ccccc1NC(=O)/C=C/c1ccc(C(CCN2C[C@@H]3C[C@H]2CO3)C(=O)Nc2ccc(Br)cc2)cc1` (stereo partly drawn) [Example 6, 2-{4-[(E)-2-(2-Amino-phenylcarbamoyl)-vinyl]-phenyl}-N-(4-bromo-phenyl)-4-(1S,4S)-2-oxa-5-aza-bicyclo[2.2.1]hept-5-yl-butyramide] was tested, and the IC90 [1] was 2.7 µM, the GI50 [1] was 0.8 µM and the “p21 (RP3): relative induction potency compared with SNDX-275” value (from here on “p21 (RP3): relative induction potency”) [2] was 212%.

With `Nc1ccccc1NC(=O)/C=C/c1ccc(C(CCN2CCOCC2)C(=O)Nc2ccc(Br)cc2)cc1` (stereo not drawn) [Example 6-2, 2-{4-[(E)-2-(2-Amino-phenylcarbamoyl)-vinyl]-phenyl}-N-(4-bromo-phenyl)-4-morpholin-4-yl-butyramide] the IC90 [1] was 3.1 µM, the GI50 [1] was 1 µM and the “p21 (RP3): relative induction potency” value [2] was 233%.

`Nc1ccccc1NC(=O)/C=C/c1ccc(C(CCCN2CCOCC2)C(=O)Nc2ccc(Br)cc2)cc1` (stereo not drawn) [Example 9, 2-{4-[(E)-2-(2-Amino-phenylcarbamoyl)-vinyl]phenyl}-5-morpholin-4-yl-pentanoic acid (4-bromo-phenyl)-amide] was tested, and the IC90 [1] was 2.9 µM, the GI50 [1] was 1.3 µM and the “p21 (RP3): relative induction potency” value [2] was 253%.

In the case of `Nc1ccccc1NC(=O)/C=C/c1ccc(C(CCCN2C[C@@H]3C[C@H]2CO3)C(=O)Nc2ccc(Br)cc2)cc1` (stereo partly drawn) [Example 9-2, 2-{4-[(E)-2-(2-Amino-phenylcarbamoyl)-vinyl]-phenyl}-5-(1S,4S)-2-oxa-5-aza-bicyclo[2.2.1]hept-5-yl-pentanoic acid (4-bromo-phenyl)-amide], the IC90 [1] is reported as 1.5 µM, the GI50 [1] is reported as 0.7 µM and the “p21 (RP3): relative induction potency” value [2] is reported as 74%.

In the case of `Nc1ccccc1NC(=O)/C=C/c1ccc(C(CCCN2CCCCC2)C(=O)Nc2ccc(Br)cc2)cc1` (stereo not drawn) [Example 9-3, 2-{4-[(E)-2-(2-Amino-phenylcarbamoyl)-vinyl]-phenyl}-5-piperidin-1-yl-pentanoic acid (4-bromo-phenyl)-amide], the IC90 [1] is reported as 2.1 µM, the GI50 [1] is reported as 0.8 µM and the “p21 (RP3): relative induction potency” value [2] is reported as 305%.

In the case of `CC(C)c1ccc(NC(=O)C(CCCN2C[C@@H]3C[C@H]2CO3)c2ccc(/C=C/C(=O)Nc3ccccc3N)cc2)cc1` (stereo partly drawn) [Example 9-4, 2-{4-[(E)-2-(2-Amino-phenylcarbamoyl)-vinyl]-phenyl}-5-(1S,4S)-2-oxa-5-aza-bicyclo[2.2.1]hept-5-yl-pentanoic acid (4-isopropyl-phenyl)-amide], the IC90 [1] is reported as 4.9 µM, the GI50 [1] is reported as 1.4 µM and the “p21 (RP3): relative induction potency” value [2] is reported as 155%.

For `Nc1ccccc1NC(=O)/C=C/c1ccc(C(CCCN2CCCC(O)C2)C(=O)Nc2ccc(Br)cc2)cc1` (stereo not drawn) [Example 9-5, 2-{4-[(E)-2-(2-Amino-phenylcarbamoyl)-vinyl]-phenyl}-5-(3-hydroxy-piperidin-1-yl)-pentanoic acid (4-bromo-phenyl)-amide], the IC90 [1] was 3.2 µM, the GI50 [1] was 1.1 µM and the “p21 (RP3): relative induction potency” value [2] was 127%.

With `CN1CCCC1CCC(C(=O)Nc1ccc(Br)cc1)c1ccc(/C=C/C(=O)Nc2ccccc2N)cc1` (stereo not drawn) [Example 25, 2-{4-[(E)-2-(2-Amino-phenylcarbamoyl)-vinyl]-phenyl}-N-(4-bromo-phenyl)-4-(1-methyl-pyrrolidin-2-yl)-butyramide] the IC90 [1] was 2.5 µM, the GI50 [1] was 0.8 µM and the “p21 (RP3): relative induction potency” value [2] was 199%.

In the case of `CCN(CC)C1CCN(CC(C(=O)Nc2ccc(Cl)cc2)c2ccc(/C=C/C(=O)Nc3ccccc3N)cc2)C1` (stereo not drawn) [Example 31, (E)-N-(2-Amino-phenyl)-3-{4-[1-(4-chloro-phenylcarbamoyl)-2-(3-diethylamino-pyrrolidin-1-yl)-ethyl]phenyl}-acrylamide], the IC90 [1] is reported as 3.3 µM, the GI50 [1] is reported as 0.9 µM and the “p21 (RP3): relative induction potency” value [2] is reported as 243%.

For `Nc1ccccc1NC(=O)c1ccc(CNC(=O)OCc2cccnc2)cc1` [SNDX-275, reference compound], the IC90 [1] was 10.5 µM, the GI50 [1] was 3.5 µM and the “p21 (RP3): relative induction potency” value [2] was 100%.
